From ChEMBL document CHEMBL1201862, “PubChem BioAssay data set” (2004)
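Growth conditions: 96-well plates. Treatment: test compound, 48 hours, 5 concentrations. Analysis: linear interpolation between bracketing concentrations; unreached endpoints set to highest concentration. At the GI50, growth is halved.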 Activity calls are given as the source filed them. Rule as the data show it: active = GI50 up to about 1.1 µM and inactive = higher. Starred links: 1 amine or outer side, 2 acyl side, 3 side chain; linkers in the order of their positions; H or OH if unused. Positions of bridges follow the written chain, without caps; N, C: chain ends. Non-standard residues stand in square brackets, D forms with d. Residues, ends and D or L forms follow the SMILES beside them. Chains are numbered I, II in the order given. Actinocin(1to9) = Cc1c2oc3c(C)ccc(C(=O)[*:2])c3nc-2c(C(=O)[*:1])c(N)c1=O; aThr = C[C@H](O)[C@H](N)C(=O)O; NMeV = CN[C@H](C(=O)O)C(C)C; Sar = CNCC(=O)O

Experiments:
Test in all cases: inhibition of tumour cell growth, NCI panel, 48 h
DMS-273 = test system: DMS-273
SNB-78 = test system: SNB-78
DLD-1 = test system: DLD-1
RXF 631 = test system: RXF 631
DMS-114 = test system: DMS-114
LXFL 529 = test system: LXFL 529
HOP-18 = test system: HOP-18
KM-20L2 = test system: KM-20L2
XF498 = test system: XF498

| SMILES | GI50 (DMS-273) | GI50 (SNB-78) | GI50 (DLD-1) | GI50 (RXF 631) | GI50 (DMS-114) | GI50 (LXFL 529) | GI50 (HOP-18) | GI50 (KM-20L2) | GI50 (XF498) |
| --- | --- | --- | --- | --- | --- | --- | --- | --- | --- |
| CCOC(=O)c1cnc2sc3ccc4ccccc4c3n2c1=O | 95.5 µM (inactive) | > 100 µM (inactive) | > 100 µM (inactive) | 64.6 µM (inactive) | 71.6 µM (inactive) | 55.2 µM (inactive) | > 100 µM (inactive) | 72.1 µM (inactive) | – |
| CC(C)CCS(=O)(=O)OCCCCOS(=O)(=O)CCC(C)C | > 100 µM (inactive) | > 100 µM (inactive) | > 100 µM (inactive) | – | > 100 µM (inactive) | > 100 µM (inactive) | – | > 100 µM (inactive) | – |
| COc1ccc(Oc2ccccc2N)cc1 | 29.5 µM (inactive) | > 100 µM (inactive) | 30 µM (inactive) | > 100 µM (inactive) | 37.2 µM (inactive) | 10.4 µM (inactive) | > 100 µM (inactive) | 27.6 µM (inactive) | – |
| NNC(=O)/C(NC(=O)c1ccccc1)=C(\N)c1ccc(Cl)cc1 | > 100 µM (inactive) | > 100 µM (inactive) | > 100 µM (inactive) | – | > 100 µM (inactive) | > 100 µM (inactive) | > 100 µM (inactive) | > 100 µM (inactive) | – |
| CC1CN1c1c(C(=O)/C=C/c2ccc(F)cc2)c(-c2ccccc2)nn(C)c1=O (stereo not drawn) | > 10 µM (inactive) | 23.4 µM (inactive) | 12.8 µM (inactive) | – | 15.7 µM (inactive) | 16.7 µM (inactive) | 15.2 µM (inactive) | 17.7 µM (inactive) | 15.3 µM (inactive) |
| CCC(=C(C#N)C#N)c1cc(OC)c(OC)c(OC)c1 | > 100 µM (inactive) | – | > 100 µM (inactive) | – | > 100 µM (inactive) | > 100 µM (inactive) | > 100 µM (inactive) | > 100 µM (inactive) | > 100 µM (inactive) |
| c1ccc(C2=NOC3(c4ccccc4)SC4CCCCC4CN23)cc1 (stereo not drawn) | 32.6 µM (inactive) | 34 µM (inactive) | 40.5 µM (inactive) | – | 15.6 µM (inactive) | 13.2 µM (inactive) | 26.9 µM (inactive) | 39.5 µM (inactive) | 52.4 µM (inactive) |
| COc1cc2c(cc1OC)C(C(c1ccccc1)c1ccccc1)N(C)CC2 (stereo not drawn) | 77.3 µM (inactive) | > 100 µM (inactive) | > 78.9 µM (inactive) | – | 41.8 µM (inactive) | – | > 100 µM (inactive) | 32.6 µM (inactive) | 53 µM (inactive) |
| COc1ccc2c(c1)[n+]([O-])c(-c1ccc(C)cc1)c(N)[n+]2[O-] | 37.7 µM (inactive) | 70.5 µM (inactive) | > 100 µM (inactive) | – | 24.9 µM (inactive) | 59.6 µM (inactive) | > 100 µM (inactive) | 36.1 µM (inactive) | – |
| CC(C)(c1ccc(OC#N)cc1)c1ccc(OC#N)cc1 | – | > 100 µM (inactive) | > 56.8 µM (inactive) | > 100 µM (inactive) | > 41.5 µM (inactive) | > 100 µM (inactive) | > 100 µM (inactive) | > 74.6 µM (inactive) | – |
| Cc1ccc(OC(=O)N2C/C(=C\c3ccccc3)C(=O)/C(=C/c3ccccc3)C2)cc1 | 4.83 µM (inactive) | 28.4 µM (inactive) | 6.84 µM (inactive) | 40.7 µM (inactive) | 15.1 µM (inactive) | 9.98 µM (inactive) | > 46.2 µM (inactive) | 39.7 µM (inactive) | 26.2 µM (inactive) |
| N#CC1(C#N)C(c2ccc(C3C(C#N)(C#N)C3(C#N)C#N)cc2)C1(C#N)C#N | > 100 µM (inactive) | – | > 100 µM (inactive) | – | > 100 µM (inactive) | > 100 µM (inactive) | > 100 µM (inactive) | > 100 µM (inactive) | – |
| O=C1C=C2SC3C[C@@]24CC1[N+]1=c2c4c(c(O)c4c2=C(C=N4)CC1)N3 | 2.12 µM (inactive) | 2.61 µM (inactive) | 2.07 µM (inactive) | – | 1.39 µM (inactive) | – | 6.49 µM (inactive) | 1.92 µM (inactive) | 1.91 µM (inactive) |
| Cc1c2oc3c(C)ccc(C(=O)N[C@@H]4C(=O)N[C@H](C(C)C)C(=O)N5CCC[C@H]5C(=O)N(C)CC(=O)N(C)[C@@H](C(C)C)C(=O)O[C@H]4C)c3nc-2c(C(=O)N[C@@H]2C(=O)N[C@H](C(C)C)C(=O)N3CCC[C@H]3C(=O)N(C)CC(=O)N(C)[C@@H](C(C)C)C(=O)O[C@H]2C)c(N)c1=O (I: [aThr][dV]P[Sar][NMeV] / II: [aThr][dV]P[Sar][NMeV]; ester I:1-I:C, II:1-II:C; linker I:N-II:N via Actinocin(1to9)) | 0.00031 µM (active) | 0.0027 µM (active) | 0.00384 µM (active) | – | 0.00295 µM (active) | – | 0.00611 µM (active) | 0.00292 µM (active) | 0.000897 µM (active) |
| Oc1cc(O)cc(/C=C/c2ccc(O)c(O)c2)c1 [PICEATANNOL] | 12.3 µM (inactive) | 17.9 µM (inactive) | 8.57 µM (inactive) | – | 5.66 µM (inactive) | – | 45.5 µM (inactive) | 23.4 µM (inactive) | – |
